Laboratory results as given in US11839212B2, “Synergistic pesticidal compositions and methods for delivery of insecticidal active ingredients” (0903608 B.C. Ltd., priority 2018, dated 2023).
Like-named read-outs stand apart in the source and are kept apart here. Each block holds one compound with its values, some of them ahead of it.

Key:
Test in all cases: Synergistic Growth Inhibition Assay (MIC and FIC index, 96-well, resazurin)
Type in all cases: cell-based
[1] = test system: Botrytis cinerea; details: for MIC: Botrytis cinerea, 48 h
Description: (§1) In some embodiments, the synergistic action between the pesticidal active ingredient, and the at least one C6-C10 (or alternatively C11 or C12) saturated or unsaturated aliphatic acid components of the pesticidal compositions according to embodiments of the present disclosure was tested using a Synergistic Growth Inhibition Assay, which is derived from and related to a checkerboard assay as is known in the art for testing of combinations of antimicrobial agents. In the Synergistic Growth Inhibition Assay used in accordance with some embodiments of the present disclosure, multiple dilutions of combinations of pesticidal active ingredient and at least one C6-C10 saturated or unsaturated aliphatic acid agents are tested in individual cells for inhibitory activity against a target pest or pathogenic organism. In one such embodiment, the combinations of pesticidal active ingredient and C6-C10 (or alternatively C11 or C12) saturated or unsaturated aliphatic acid agents may preferably be tested in decreasing concentrations. In a further such embodiment, the combinations of pesticidal active ingredient and C6-C10 (or alternatively C11 or C12) saturated or unsaturated aliphatic acid agents may be tested in increasing concentrations. These multiple combinations of the pesticidal active ingredient and at least one C6-C10 (or alternatively C11 or C12) saturated or unsaturated aliphatic acid agents may be prepared in 96-well microtiter plates. In one such embodiment, the Synergistic Growth Inhibition Assay then comprises rows which each contain progressively decreasing concentrations of the pesticidal active ingredient and one or more C6-C10 (or alternatively C11 or C12) saturated or unsaturated aliphatic acid agents to test for the MIC of the agents in combination at which growth of the target pest or pathogen is inhibited. Thus, each well of the microtiter plate is a unique combination of the two agents, at which inhibitory efficacy of the combination against the target pest or pathogen can be determined.
(§2) In one embodiment according to the present disclosure, for each row of microtiter cells in the Synergistic Growth Inhibition Assay, the FIC index is calculated from the lowest concentration of the pesticidal active ingredient and one or more C6-C10 saturated or unsaturated aliphatic acid agents necessary to inhibit growth of a target pest or pathogen. The FIC of each component is derived by dividing the concentration of the agent present in that well of the microtiter plate by the minimal inhibitory concentration (MIC) needed of that agent alone to inhibit growth of the target pest or pathogen. The FIC index is then the sum of these values for both agents in that well of the microtiter plate. […] Fractional inhibitory concentration indices may then used as measure of synergy. […] When the FIC index is equal to 1, the combination is additive.
(§3) Then, serial dilutions of these initial compositions in successive wells in the row of the microtiter plate were used to assay the pesticidal composition under the same conditions to determine the concentration of the composition combining the two agents corresponding to the microtiter well in which growth inhibition of the target pest or organism ceases.
(§4) Similarly to as described above, Resazurin was used as an indicator of growth or inhibition of growth of Botrytis cinerea in the exemplary Synergistic Growth Inhibition Assay. In addition to the color change of the resazurin, an optical or visual examination of the microtiter well may also be made to additionally determine the presence of growth or inhibition of growth of the Botrytis cinerea.

[2] = test system: Sclerotinia sclerotiorum; details: for MIC: Sclerotinia sclerotiorum
Description: as §1, §2, §3
as §4, with “Sclerotinia sclerotiorum” for “Botrytis cinerea”, “Sclerotinia sclerotiorum.” for “Botrytis cinerea.”

[3] = test system: Fusarium oxysporum; details: Fusarium oxysporum
Description: as §1, §2, §3
Resazurin dye (also known as Alamar blue dye) was used as an indicator to determine the presence of growth or inhibition of growth of Fusarium oxysporum in the wells of the 96 well microtiter plates used in the exemplary Synergistic Growth Inhibition Assay. In addition to the color change of the resazurin dye in the presence of growth of the Fusarium oxysporum, an optical or visual examination of the microtiter well may also be made to additionally determine the presence of growth or inhibition of growth of the Fusarium oxysporum.

[4] = Table 20B, Compound A alone, incubation 7 days, read-out: MIC (A)
[5] = Table 54, Compound B alone, 48 hours incubation, read-out: MIC (B)
[6] = Table 56, Compound B alone, 48 hours incubation, read-out: MIC (B)
[7] = 48 h, Table 27, Compound B alone, 48 hours incubation, read-out: MIC (B)
[8] = 48 h, Table 30, Compound B alone, 48 hours incubation, read-out: MIC (B)
[9] = Table 59, Compound B alone, 48 hours incubation, read-out: MIC (B)
[10] = Table 51, Compound B alone, 48 hours incubation, read-out: MIC (B)
[11] = Table 24, Compound B alone, 48 hours incubation, read-out: MIC (B)
[12] = Table 25, Compound B alone, 48 hours incubation, read-out: MIC (B)
[13] = Table 26, Compound B alone, 48 hours incubation, read-out: MIC (B)

SMILES: Cc1cc(C(F)(F)F)nn1CC(=O)N1CCC(c2nc(C3=NOC(c4c(F)cccc4F)C3)cs2)CC1 (centres unmarked) [Oxathiapiprolin, reference compound]
MIC (A) ([1]; Table 55, Compound A alone, 48 hours incubation): 500 µg/mL

SMILES: N#Cc1c[nH]cc1-c1cccc2c1OC(F)(F)O2 [Fludioxonil, fludioxonil, reference compound]
MIC ([2]; read-out: MIC (A), Table 37, Compound A alone, 7 days incubation): 0.164 µg/mL
MIC ([3]; 24 h, read-out: MIC (A), Table 2, Compound A alone, 24 hour incubation): 0.481 µg/mL
MIC ([3]; 24 h, read-out: MIC (A), Table 3, Compound A alone, 24 hour incubation): 0.241 µg/mL
MIC ([3]; 24 h, read-out: MIC(A), Table 7, Compound A alone, 24 hour incubation): 0.481 µg/mL
MIC ([3]; 48 h, read-out: MIC (A), Table 13, Compound A alone, incubation 48 hours): 21 µg/mL
MIC ([3]; 48 h, read-out: MIC (A), Table 15B, Compound A alone, incubation 48 hours): 21 µg/mL
MIC ([3]; 48 h, read-out: MIC (A), Table 29, Compound A alone, 48 hours incubation): 21 µg/mL
MIC ([3]; read-out: MIC (A), Table 8, Compound A alone): 0.481 µg/mL

MIC ([2]; Table 34, Compound B alone, 7 days incubation, read-out: MIC (B)): 19.5 µg/mL
SMILES: CCCCCCC/C=C\C(=O)O [Cis-2-decenoic acid]

SMILES: COCC(=O)N(c1c(C)cccc1C)C(C)C(=O)OC (centres unmarked) [Metalaxyl, reference compound]
MIC [2, 4]: 1260 µg/mL
MIC ([1]; Table 23, Compound A alone, incubation 48 hours, read-out: MIC (A)): 316 µg/mL
MIC ([1]; Table 26, Compound A alone, 48 hours incubation, read-out: MIC (A)): 316 µg/mL
MIC ([1]; Table 48, Compound A alone, 48 hours incubation, read-out: MIC (A)): 316 µg/mL

SMILES: CCCCCCCC/C=C\CCCCCCCC(=O)O [Oleic acid]
MIC [1, 5]: 5000 µg/mL
MIC [1, 6]: 5000 µg/mL

MIC [3, 7]: 312 µg/mL
MIC [3, 8]: 312 µg/mL
MIC ([1]; Table 43, Compound B alone, 48 hours incubation, read-out: MIC (B)): 312 µg/mL
MIC ([1]; Table 45, Compound B alone, 48 hours incubation, read-out: MIC (B)): 312 µg/mL
SMILES: CC=CCCC(=O)O [4-Hexenoic acid]

SMILES: CCCCCCCCCC(=O)[O-].[K+] [Decanoic acid, potassium salt, decanoic acid, potassium salt]
MIC ([3]; 24 h, read-out: MIC(B), Table 7, Compound B alone, 24 hour incubation): 78.1 µg/mL
MIC ([3]; read-out: MIC (B), Table 8, Compound B alone): 78.1 µg/mL

MIC [1, 9]: 1250 µg/mL
SMILES: CCCCC(O)C(=O)O (centres unmarked) [2-hydroxyhexanoic acid]

SMILES: CCCC1COC(Cn2cncn2)(c2ccc(Cl)cc2Cl)O1 (centres unmarked) [Propiconazole, reference compound]
MIC ([2]; Table 18, Compound A alone, incubation 7 days, read-out: MIC (A)): 89 µg/mL
MIC [2, 4]: 89 µg/mL
MIC ([2]; Table 39, Compound A alone, 7 days incubation, read-out: MIC (A)): 89 µg/mL
MIC ([1]; Table 24, Compound A alone, 48 hours incubation, read-out: MIC (A)): 89 µg/mL

SMILES: CCCCCCCC/C=C\CCCCCCCC(=O)O [(9Z)-octadecenoic acid]
MIC (B) ([2]; Table 33, Compound B alone, 7 days incubation): 5000 µg/mL
MIC (B) ([1]; Table 49, Compound B alone, 48 hours incubation): 5000 µg/mL
MIC (B) ([1]; Table 50, Compound B alone, 48 hours incubation): 5000 µg/mL

SMILES: CON=C(C(=O)OC)c1ccccc1CON=C(C)c1cccc(C(F)(F)F)c1 [Trifloxystrobin, reference compound]
MIC ([1]; Table 58, Compound A alone, 48 hours incubation, read-out: MIC (A)): 250 µg/mL
MIC ([1]; Table 59, Compound A alone, 48 hours incubation, read-out: MIC (A)): 250 µg/mL

SMILES: O=C(O)CCCCCCCO [8-Hydroxyoctanoic acid]
MIC ([1]; read-out: MIC (B), Table 51, Compound B alone, 48 hours incubation): 1250 µg/mL
MIC ([1]; read-out: MIC (B), Table 56, Compound B alone, 48 hours incubation): 2500 µg/mL
MIC ([1]; read-out: MIC (B), Table 59, Compound B alone, 48 hours incubation): 1250 µg/mL

MIC [1, 10]: 7.81 µg/mL
MIC [1, 6]: 125 µg/mL
MIC [1, 9]: 125 µg/mL
SMILES: CCCCCCCCC(C)C(=O)O (centres unmarked) [2-Methyldecanoic acid]

MIC [1, 10]: 39.1 µg/mL
MIC [1, 6]: 312 µg/mL
MIC [1, 9]: 78.1 µg/mL
SMILES: CCCCCCC(C)C(=O)O (centres unmarked) [2-Methyloctanoic acid]

MIC [1, 10]: 250 µg/mL
MIC [1, 9]: 250 µg/mL
SMILES: CCC(CC)(CC)C(=O)O [2,2-Diethylbutanoic acid]

SMILES: C/C=C/C=C/C(=O)[O-].[K+] [(2E,4E)-2,4-hexadienoic acid, potassium salt]
MIC ([3]; 24 h, read-out: MIC (B), Table 2, Compound B alone, 24 hour incubation): 625 µg/mL
MIC ([3]; 24 h, read-out: MIC(B), Table 1, Compound B alone, 24 hour incubation): 625 µg/mL

SMILES: CCCCCCCCCC(=O)O [Decanoic acid, decanoic acid]
MIC ([1]; Table 22, Compound B alone, incubation 48 hours, read-out: MIC (B)): 78.1 µg/mL
MIC [1, 11]: 312 µg/mL
MIC [1, 12]: 15.6 µg/mL
MIC [1, 13]: 78.1 µg/mL
MIC ([1]; Table 52, Compound B alone, 48 hours incubation, read-out: MIC(B)): 15.6 µg/mL
MIC [1, 5]: 15.6 µg/mL

MIC [1, 9]: 312 µg/mL
SMILES: CCCCCCCCC(O)C(=O)O (centres unmarked) [2-Hydroxydecanoic acid]

MIC ([2]; Table 16, Compound B alone, incubation 7 days, read-out: MIC (B)): 50 µg/mL
MIC ([2]; Table 17, Compound B alone, incubation 7 days, read-out: MIC (B)): 50 µg/mL
MIC ([2]; Table 18, Compound B alone, incubation 7 days, read-out: MIC (B)): 50 µg/mL
MIC ([2]; Table 20A, Compound B alone, incubation 7 days, read-out: MIC (B)): 25 µg/mL
MIC ([1]; Table 21, Compound B alone, incubation 48 hours, read-out: MIC (B)): 25 µg/mL
MIC [1, 11]: 50 µg/mL
MIC [1, 12]: 50 µg/mL
MIC [1, 13]: 50 µg/mL
MIC [1, 5]: 50 µg/mL
MIC [1, 6]: 50 µg/mL
SMILES: CCCCCCCCCCCC(=O)O [Dodecanoic acid, dodecanoic acid]

MIC ([3]; 24 h, Table 3, Compound B alone, 24 hour incubation, read-out: MIC(B)): 149 µg/mL
MIC ([3]; 24 h, Table 4, Compound B alone, 24 hour incubation, read-out: MIC (B)): 149 µg/mL
MIC [3, 7]: 312 µg/mL
MIC [3, 8]: 156 µg/mL
MIC ([3]; 48 h, Table 31, Compound B alone, 48 hours incubation, read-out: MIC (B)): 156 µg/mL
MIC ([3]; 48 h, Table 32, Compound B alone, 48 hours incubation, read-out: MIC (B)): 312 µg/mL
SMILES: CCCCC/C=C/C(=O)O [Trans-2-octenoic acid, trans-2-octenoic acid]
